Source: ChEMBL document CHEMBL1123417, “New structure-activity relationships of the quinolone antibacterials using the target enzyme. The development and application of a DNA gyrase assay” (J Med Chem, 1986)
In brackets after ≈: the same amount, converted by molar mass.

System: Pseudomonas aeruginosa
Experiment: Antibacterial activity against Pseudomonas aeruginosa (UI-18)

Compound | MIC [µg/mL]
CCn1cc(C(=O)O)c(=O)c2cc([N+](=O)[O-])c(C)nc21 | > 100
CCn1cc(C(=O)O)c(=O)c2cc(N)c(C)nc21 | > 100
CCn1cc(C(=O)O)c(=O)c2cc(F)c(N3CCN(C(C)=N)CC3)cc21 | 1.6 (≈ 4.44 µM)
CCn1cc(C(=O)O)c(=O)c2cc(F)c(C)nc21 | 50 (≈ 200 µM)
CCn1cc(C(=O)O)c(=O)c2cc(F)c(N3CCC(N4CCCC4)CC3)cc21 | 3.1 (≈ 8 µM)
CCn1cc(C(=O)O)c(=O)c2cc(F)c(N3CCC(C(N)=O)CC3)cc21 | 50 (≈ 138 µM)
CCn1cc(C(=O)O)c(=O)c2c(N)nc(N3CCNCC3)nc21 | 25 (≈ 78.5 µM)
CCn1cc(C(=O)O)c(=O)c2ccc(/C=N/N3CCN(C)CC3)nc21 | > 100
CCn1cc(C(=O)O)c(=O)c2cc(F)c(C)cc21 | 12.5 (≈ 50.2 µM)
CCn1cc(C(=O)O)c(=O)c2cc(F)c(N3CCC(C(F)(F)F)CC3)cc21 | > 100
CCn1cc(C(=O)O)c(=O)c2cc(F)c(Cl)cc21 | 50 (≈ 185 µM)
CCn1cc(C(=O)O)c(=O)c2ccc(N3CCNCC3)cc21 | 25 (≈ 83 µM)
CCn1cc(C(=O)O)c(=O)cc1/C=C/c1ccsc1 | > 100
CCn1cc(C(=O)O)c(=O)c2cc(F)c(N3CCN(C(C)=N)CC3)nc21 | 25 (≈ 69.2 µM)
CCn1cc(C(=O)O)c(=O)cc1C | > 100
CCn1cc(C(=O)O)c(=O)cc1-c1ccc(OC)cc1 | > 100

System: Escherichia coli
Experiment: Antibacterial activity against Escherichia coli (vogel)

Compound | MIC [µg/mL]
CCn1cc(C(=O)O)c(=O)c2cc([N+](=O)[O-])c(C)nc21 | 25 (≈ 90.2 µM)
CCn1cc(C(=O)O)c(=O)c2cc(N)c(C)nc21 | > 100
CCn1cc(C(=O)O)c(=O)c2cc(F)c(N3CCN(C(C)=N)CC3)cc21 | 0.8 (≈ 2.22 µM)
CCn1cc(C(=O)O)c(=O)c2cc(F)c(C)nc21 | 3.1 (≈ 12.4 µM)
CCn1cc(C(=O)O)c(=O)c2cc(F)c(N3CCC(N4CCCC4)CC3)cc21 | 0.4 (≈ 1.03 µM)
CCn1cc(C(=O)O)c(=O)c2cc(F)c(N3CCC(C(N)=O)CC3)cc21 | 6.3 (≈ 17.4 µM)
CCn1cc(C(=O)O)c(=O)c2c(N)nc(N3CCNCC3)nc21 | 6.3 (≈ 19.8 µM)
CCn1cc(C(=O)O)c(=O)c2ccc(/C=N/N3CCN(C)CC3)nc21 | 12.5 (≈ 36.4 µM)
CCn1cc(C(=O)O)c(=O)c2cc(F)c(C)cc21 | 0.2 (≈ 0.802 µM)
CCn1cc(C(=O)O)c(=O)c2cc(F)c(N3CCC(C(F)(F)F)CC3)cc21 | 6.3 (≈ 16.3 µM)
CCn1cc(C(=O)O)c(=O)c2cc(F)c(Cl)cc21 | 0.8 (≈ 2.97 µM)
CCn1cc(C(=O)O)c(=O)c2ccc(N3CCNCC3)cc21 | 6.3 (≈ 20.9 µM)
CCn1cc(C(=O)O)c(=O)cc1/C=C/c1ccsc1 | 25 (≈ 90.8 µM)
CCn1cc(C(=O)O)c(=O)c2cc(F)c(N3CCN(C(C)=N)CC3)nc21 | 3.1 (≈ 8.58 µM)
CCn1cc(C(=O)O)c(=O)cc1C | > 100
CCn1cc(C(=O)O)c(=O)cc1-c1ccc(OC)cc1 | 50 (≈ 183 µM)

System: Escherichia coli
Experiment: Antibacterial activity against Escherichia coli (H560)

Compound | MIC [µg/mL]
CCn1cc(C(=O)O)c(=O)c2cc([N+](=O)[O-])c(C)nc21 | 50 (≈ 180 µM)
CCn1cc(C(=O)O)c(=O)c2cc(N)c(C)nc21 | 100 (≈ 404 µM)
CCn1cc(C(=O)O)c(=O)c2cc(F)c(N3CCN(C(C)=N)CC3)cc21 | 0.2 (≈ 0.555 µM)
CCn1cc(C(=O)O)c(=O)c2cc(F)c(C)nc21 | 3.1 (≈ 12.4 µM)
CCn1cc(C(=O)O)c(=O)c2cc(F)c(N3CCC(N4CCCC4)CC3)cc21 | 0.1 (≈ 0.258 µM)
CCn1cc(C(=O)O)c(=O)c2cc(F)c(N3CCC(C(N)=O)CC3)cc21 | 25 (≈ 69.2 µM)
CCn1cc(C(=O)O)c(=O)c2c(N)nc(N3CCNCC3)nc21 | 3.1 (≈ 9.74 µM)
CCn1cc(C(=O)O)c(=O)c2ccc(/C=N/N3CCN(C)CC3)nc21 | 12.5 (≈ 36.4 µM)
CCn1cc(C(=O)O)c(=O)c2cc(F)c(C)cc21 | 0.4 (≈ 1.6 µM)
CCn1cc(C(=O)O)c(=O)c2cc(F)c(N3CCC(C(F)(F)F)CC3)cc21 | 6.3 (≈ 16.3 µM)
CCn1cc(C(=O)O)c(=O)c2cc(F)c(Cl)cc21 | 1.6 (≈ 5.93 µM)
CCn1cc(C(=O)O)c(=O)c2ccc(N3CCNCC3)cc21 | 6.3 (≈ 20.9 µM)
CCn1cc(C(=O)O)c(=O)cc1/C=C/c1ccsc1 | 50 (≈ 182 µM)
CCn1cc(C(=O)O)c(=O)c2cc(F)c(N3CCN(C(C)=N)CC3)nc21 | 0.8 (≈ 2.21 µM)
CCn1cc(C(=O)O)c(=O)cc1C | > 100
CCn1cc(C(=O)O)c(=O)cc1-c1ccc(OC)cc1 | > 100

System: Staphylococcus aureus
Experiment: Antibacterial activity against Staphylococcus aureus (H228)

Compound | MIC [µg/mL]
CCn1cc(C(=O)O)c(=O)c2cc([N+](=O)[O-])c(C)nc21 | 25 (≈ 90.2 µM)
CCn1cc(C(=O)O)c(=O)c2cc(N)c(C)nc21 | 50 (≈ 202 µM)
CCn1cc(C(=O)O)c(=O)c2cc(F)c(N3CCN(C(C)=N)CC3)cc21 | 6.3 (≈ 17.5 µM)
CCn1cc(C(=O)O)c(=O)c2cc(F)c(C)nc21 | 25 (≈ 99.9 µM)
CCn1cc(C(=O)O)c(=O)c2cc(F)c(N3CCC(N4CCCC4)CC3)cc21 | 3.1 (≈ 8 µM)
CCn1cc(C(=O)O)c(=O)c2cc(F)c(N3CCC(C(N)=O)CC3)cc21 | 3.1 (≈ 8.58 µM)
CCn1cc(C(=O)O)c(=O)c2c(N)nc(N3CCNCC3)nc21 | 50 (≈ 157 µM)
CCn1cc(C(=O)O)c(=O)c2ccc(/C=N/N3CCN(C)CC3)nc21 | 12.5 (≈ 36.4 µM)
CCn1cc(C(=O)O)c(=O)c2cc(F)c(C)cc21 | 1.6 (≈ 6.42 µM)
CCn1cc(C(=O)O)c(=O)c2cc(F)c(N3CCC(C(F)(F)F)CC3)cc21 | 0.1 (≈ 0.259 µM)
CCn1cc(C(=O)O)c(=O)c2cc(F)c(Cl)cc21 | 3.1 (≈ 11.5 µM)
CCn1cc(C(=O)O)c(=O)c2ccc(N3CCNCC3)cc21 | > 50
CCn1cc(C(=O)O)c(=O)cc1/C=C/c1ccsc1 | > 100
CCn1cc(C(=O)O)c(=O)c2cc(F)c(N3CCN(C(C)=N)CC3)nc21 | 50 (≈ 138 µM)
CCn1cc(C(=O)O)c(=O)cc1C | > 100
CCn1cc(C(=O)O)c(=O)cc1-c1ccc(OC)cc1 | > 100

Molecular target: DNA gyrase (Escherichia coli) (UniProt P0AES6+P0AES4)
Experiment: not given

Compound | gyrase cleavage conc [µg/mL]
CCn1cc(C(=O)O)c(=O)c2cc([N+](=O)[O-])c(C)nc21 | 50
CCn1cc(C(=O)O)c(=O)c2cc(N)c(C)nc21 | > 100
CC1COc2c(N3CCN(C)CC3)c(F)cc3c(=O)c(C(=O)O)cn1c23 (stereo not given) | 5
CCn1cc(C(=O)O)c(=O)c2cc(F)c(N3CCN(C(C)=N)CC3)cc21 | 2.5
CCn1cc(C(=O)O)c(=O)c2cc(F)c(C)nc21 | 25
CCn1cc(C(=O)O)c(=O)c2cc(F)c(N3CCC(N4CCCC4)CC3)cc21 | 7.5
CCn1cc(C(=O)O)c(=O)c2cc(F)c(N3CCC(C(N)=O)CC3)cc21 | 7.5
CCn1cc(C(=O)O)c(=O)c2c(N)nc(N3CCNCC3)nc21 | 100
CCn1cc(C(=O)O)c(=O)c2ccc(/C=N/N3CCN(C)CC3)nc21 | 100
CCn1cc(C(=O)O)c(=O)c2cc(F)c(C)cc21 | 25
CCn1cc(C(=O)O)c(=O)c2cc(F)c(N3CCC(C(F)(F)F)CC3)cc21 | 5
CCn1cc(C(=O)O)c(=O)c2cc(F)c(Cl)cc21 | 38
CCn1cc(C(=O)O)c(=O)c2ccc(N3CCNCC3)cc21 | 18
CCn1cc(C(=O)O)c(=O)cc1/C=C/c1ccsc1 | 100
CCn1cc(C(=O)O)c(=O)c2cc(F)c(N3CCN(C(C)=N)CC3)nc21 | 6.3
CCn1cc(C(=O)O)c(=O)cc1C | 100
CCn1cc(C(=O)O)c(=O)cc1-c1ccc(OC)cc1 | 100
CCn1cc(C(=O)O)c(=O)c2ccc(C)nc21 | 50
CCn1cc(C(=O)O)c(=O)c2cc(F)c(N3CCNCC3)cc21 | 1

System: Klebsiella pneumoniae
Experiment: Antibacterial activity against Klebsiella pneumonia (MGH-2)

Compound | MIC [µg/mL]
CCn1cc(C(=O)O)c(=O)c2cc([N+](=O)[O-])c(C)nc21 | 50 (≈ 180 µM)
CCn1cc(C(=O)O)c(=O)c2cc(N)c(C)nc21 | > 100
CCn1cc(C(=O)O)c(=O)c2cc(F)c(N3CCN(C(C)=N)CC3)cc21 | 1.6 (≈ 4.44 µM)
CCn1cc(C(=O)O)c(=O)c2cc(F)c(C)nc21 | 6.3 (≈ 25.2 µM)
CCn1cc(C(=O)O)c(=O)c2cc(F)c(N3CCC(N4CCCC4)CC3)cc21 | 1.6 (≈ 4.13 µM)
CCn1cc(C(=O)O)c(=O)c2cc(F)c(N3CCC(C(N)=O)CC3)cc21 | 25 (≈ 69.2 µM)
CCn1cc(C(=O)O)c(=O)c2c(N)nc(N3CCNCC3)nc21 | 25 (≈ 78.5 µM)
CCn1cc(C(=O)O)c(=O)c2ccc(/C=N/N3CCN(C)CC3)nc21 | 12.5 (≈ 36.4 µM)
CCn1cc(C(=O)O)c(=O)c2cc(F)c(C)cc21 | 0.2 (≈ 0.802 µM)
CCn1cc(C(=O)O)c(=O)c2cc(F)c(N3CCC(C(F)(F)F)CC3)cc21 | > 100
CCn1cc(C(=O)O)c(=O)c2cc(F)c(Cl)cc21 | 1.6 (≈ 5.93 µM)
CCn1cc(C(=O)O)c(=O)c2ccc(N3CCNCC3)cc21 | 6.3 (≈ 20.9 µM)
CCn1cc(C(=O)O)c(=O)cc1/C=C/c1ccsc1 | > 100
CCn1cc(C(=O)O)c(=O)c2cc(F)c(N3CCN(C(C)=N)CC3)nc21 | 6.3 (≈ 17.4 µM)
CCn1cc(C(=O)O)c(=O)cc1C | > 100
CCn1cc(C(=O)O)c(=O)cc1-c1ccc(OC)cc1 | 50 (≈ 183 µM)

System: Streptococcus pneumoniae
Experiment: Antibacterial activity against Streptococcus pneumoniae (SV-1)

Compound | MIC [µg/mL]
CCn1cc(C(=O)O)c(=O)c2cc([N+](=O)[O-])c(C)nc21 | > 100
CCn1cc(C(=O)O)c(=O)c2cc(N)c(C)nc21 | 50 (≈ 202 µM)
CCn1cc(C(=O)O)c(=O)c2cc(F)c(N3CCN(C(C)=N)CC3)cc21 | 12.5 (≈ 34.7 µM)
CCn1cc(C(=O)O)c(=O)c2cc(F)c(C)nc21 | > 100
CCn1cc(C(=O)O)c(=O)c2cc(F)c(N3CCC(N4CCCC4)CC3)cc21 | 12.5 (≈ 32.3 µM)
CCn1cc(C(=O)O)c(=O)c2cc(F)c(N3CCC(C(N)=O)CC3)cc21 | 6.3 (≈ 17.4 µM)
CCn1cc(C(=O)O)c(=O)c2c(N)nc(N3CCNCC3)nc21 | 50 (≈ 157 µM)
CCn1cc(C(=O)O)c(=O)c2ccc(/C=N/N3CCN(C)CC3)nc21 | 100 (≈ 291 µM)
CCn1cc(C(=O)O)c(=O)c2cc(F)c(C)cc21 | 100 (≈ 401 µM)
CCn1cc(C(=O)O)c(=O)c2cc(F)c(N3CCC(C(F)(F)F)CC3)cc21 | 6.3 (≈ 16.3 µM)
CCn1cc(C(=O)O)c(=O)c2cc(F)c(Cl)cc21 | 100 (≈ 371 µM)
CCn1cc(C(=O)O)c(=O)c2ccc(N3CCNCC3)cc21 | 50 (≈ 166 µM)
CCn1cc(C(=O)O)c(=O)cc1/C=C/c1ccsc1 | > 100
CCn1cc(C(=O)O)c(=O)c2cc(F)c(N3CCN(C(C)=N)CC3)nc21 | 50 (≈ 138 µM)
CCn1cc(C(=O)O)c(=O)cc1C | > 100
CCn1cc(C(=O)O)c(=O)cc1-c1ccc(OC)cc1 | > 100
